In patent US10183021B2, “sGC stimulators” (Ironwood Pharmaceuticals, Inc., priority 2013, dated 2019):
Read-outs that look alike come from different tables or passages of the source.

Molecular target: soluble guanylate cyclase (sGC) (Homo sapiens (Human), UniProt Q02108+Q02153)
Test: sGC-HEK-cGMP assay, new protocol with DETA-NONOate, LC/MS detection (Example 2C)
Format: cell-based
Conditions: read-out: Absolute EC50 (uM) - binned

Sequence of soluble guanylate cyclase (sGC) (Q02153 whole entry): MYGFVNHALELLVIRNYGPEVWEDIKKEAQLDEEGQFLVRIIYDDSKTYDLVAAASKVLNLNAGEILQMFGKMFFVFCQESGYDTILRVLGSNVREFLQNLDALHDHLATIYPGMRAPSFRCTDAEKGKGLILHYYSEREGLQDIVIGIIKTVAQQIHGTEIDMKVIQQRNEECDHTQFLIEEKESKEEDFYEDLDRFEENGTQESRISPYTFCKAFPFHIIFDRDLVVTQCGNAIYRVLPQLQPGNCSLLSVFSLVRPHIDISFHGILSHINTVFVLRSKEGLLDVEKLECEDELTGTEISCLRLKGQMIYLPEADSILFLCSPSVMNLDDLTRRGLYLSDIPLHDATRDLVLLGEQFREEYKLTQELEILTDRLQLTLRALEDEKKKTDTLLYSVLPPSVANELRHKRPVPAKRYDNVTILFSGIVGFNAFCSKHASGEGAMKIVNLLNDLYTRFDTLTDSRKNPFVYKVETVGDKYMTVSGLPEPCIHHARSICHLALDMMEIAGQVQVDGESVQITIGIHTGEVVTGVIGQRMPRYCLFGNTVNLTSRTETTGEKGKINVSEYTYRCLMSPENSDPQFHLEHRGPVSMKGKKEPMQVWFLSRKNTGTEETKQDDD
Sequence of soluble guanylate cyclase (sGC) (Q02108 whole entry): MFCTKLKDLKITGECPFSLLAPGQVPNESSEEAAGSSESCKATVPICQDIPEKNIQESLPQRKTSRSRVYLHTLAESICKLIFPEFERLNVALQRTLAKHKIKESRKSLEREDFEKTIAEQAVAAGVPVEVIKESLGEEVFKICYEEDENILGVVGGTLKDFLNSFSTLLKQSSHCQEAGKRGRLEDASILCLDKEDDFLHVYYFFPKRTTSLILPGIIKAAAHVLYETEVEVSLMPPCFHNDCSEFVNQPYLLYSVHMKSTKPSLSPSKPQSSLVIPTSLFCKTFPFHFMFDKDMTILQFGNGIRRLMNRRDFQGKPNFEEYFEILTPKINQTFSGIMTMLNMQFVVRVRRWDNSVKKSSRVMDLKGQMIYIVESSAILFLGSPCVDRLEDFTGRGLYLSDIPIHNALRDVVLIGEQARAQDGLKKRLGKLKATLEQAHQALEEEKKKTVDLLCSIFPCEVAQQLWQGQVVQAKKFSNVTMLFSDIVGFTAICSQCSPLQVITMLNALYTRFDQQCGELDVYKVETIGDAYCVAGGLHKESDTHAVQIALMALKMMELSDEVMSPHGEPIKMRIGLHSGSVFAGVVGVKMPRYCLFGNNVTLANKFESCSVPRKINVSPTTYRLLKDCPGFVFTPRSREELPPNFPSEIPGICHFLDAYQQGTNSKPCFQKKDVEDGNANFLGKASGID

SMILES | EC50 [µM] | EC50 (HEK293 cells, 10 μM DETA-NONOate, LC/MS detection, concentration eliciting 50% of high control response (30 μM I-329)) [µM]
COc1cc(C(=O)Nc2ccnc(-c3cc(-c4ccon4)n(Cc4ccccc4F)n3)n2)on1 [Compound I-554] | > 1 | –
O=C(Nc1ccnc(-c2cc(-c3ccon3)n(Cc3ccccc3F)n2)n1)c1ccncn1 [Compound I-555] | > 1 | –
O=C(Nc1ccnc(-c2cc(-c3ccon3)n(Cc3ccccc3F)n2)n1)c1cnco1 [Compound I-556] | > 1 | –
O=C(Nc1ccnc(-c2cc(-c3ccon3)n(Cc3ccccc3F)n2)n1)c1cocn1 [Compound I-557] | – | > 1
O=C(Nc1ccnc(-c2cc(-c3ccon3)n(Cc3ccccc3F)n2)n1)C1CC1 [Compound I-558] | 0.101 to 1 | –
CO[C@H](C(=O)Nc1ccnc(-c2cc(-c3ccon3)n(Cc3ccccc3F)n2)n1)c1ccccc1 [Compound I-559] | 0.101 to 1 | –
O=C(Nc1ccnc(-c2cc(-c3ccon3)n(Cc3ccccc3F)n2)n1)c1ccco1 [Compound I-560] | > 1 | –
O=C(Nc1ccnc(-c2cc(-c3ccon3)n(Cc3ccccc3F)n2)n1)c1cccs1 [Compound I-561] | > 1 | –
CCOCC(=O)Nc1ccnc(-c2cc(-c3ccon3)n(Cc3ccccc3F)n2)n1 [Compound I-562] | 0.101 to 1 | –
CS(=O)(=O)CC(=O)Nc1ccnc(-c2cc(-c3ccon3)n(Cc3ccccc3F)n2)n1 [Compound I-563] | > 1 | –
O=C(Nc1ccnc(-c2cc(-c3ccon3)n(Cc3ccccc3F)n2)n1)c1cc(C2CC2)n[nH]1 [Compound I-564] | > 1 | –
CC(=O)OC(C(=O)Nc1ccnc(-c2cc(-c3ccon3)n(Cc3ccccc3F)n2)n1)c1ccccc1 (stereo not drawn) [Compound I-565] | 0.101 to 1 | –
O=C(CO)N(CC(F)(F)F)c1nc(-c2cc(-c3ccon3)n(Cc3ccccc3F)n2)ncc1F [Compound I-566] | 0.101 to 1 | –
Fc1ccccc1Cn1nc(-c2ncc(F)c(NCC3(c4ncc[nH]4)CC3)n2)cc1-c1ccon1 [Compound I-567] | > 1 | –
COC(=O)NCC(Nc1nc(-c2cc(-c3ccon3)n(Cc3ccccc3F)n2)ncc1F)C(F)(F)F (stereo not drawn) [Compound I-568] | < 0.1 | –
CC1(C(=O)Nc2ccnc(-c3cc(-c4ccon4)n(Cc4ccccc4F)n3)n2)CC1 [Compound I-569] | > 1 | –
O=C(Nc1ccnc(-c2cc(-c3ccon3)n(Cc3ccccc3F)n2)n1)C1CCCO1 (stereo not drawn) [Compound I-570] | 0.101 to 1 | –
Cc1cn(CC(=O)Nc2ccnc(-c3cc(-c4ccon4)n(Cc4ccccc4F)n3)n2)c(=O)[nH]c1=O [Compound I-571] | > 1 | –
COC(C(=O)Nc1ccnc(-c2cc(-c3ccon3)n(Cc3ccccc3F)n2)n1)(c1ccccc1)C(F)(F)F (stereo not drawn) [Compound I-572] | > 1 | –
CS(=O)(=O)CCC(=O)Nc1ccnc(-c2cc(-c3ccon3)n(Cc3ccccc3F)n2)n1 [Compound I-573] | 0.101 to 1 | –
O=C(Nc1ccnc(-c2cc(-c3ccon3)n(Cc3ccccc3F)n2)n1)C1CCOCC1 [Compound I-574] | 0.101 to 1 | –
O=C1O[C@@H](CO)CN1c1nc(-c2cc(-c3ccon3)n(Cc3ccccc3F)n2)ncc1F [Compound I-575] | < 0.1 | –
C[C@H](O)C(=O)Nc1ccnc(-c2cc(-c3ccon3)n(Cc3ccccc3F)n2)n1 [Compound I-576] | 0.101 to 1 | –
O=C(Nc1ccnc(-c2cc(-c3ccon3)n(Cc3ccccc3F)n2)n1)c1ccccc1O [Compound I-577] | 0.101 to 1 | –

SMILES | EC50 [µM] | EC50 (HEK293 cells, 10 μM DETA-NONOate, LC/MS detection, concentration eliciting 50% of high control response (30 μM I-329)) [µM]
Fc1ccccc1Cn1nc(-c2ncc(F)c(NC3CCOC3)n2)cc1-c1ccon1 (stereo not drawn) [Compound I-578] | < 0.1 | –
N#CCC(=O)Nc1ccnc(-c2cc(-c3ccon3)n(Cc3ccccc3F)n2)n1 [Compound I-579] | > 1 | –
CC(C)(C(=O)Nc1ccnc(-c2cc(-c3ccon3)n(Cc3ccccc3F)n2)n1)S(C)(=O)=O [Compound I-580] | 0.101 to 1 | –
NC(=O)CCNc1nc(-c2cc(-c3ccon3)n(Cc3ccccc3F)n2)ncc1F [Compound I-581] | < 0.1 | –
CC(C)(C(=O)Nc1nc(-c2cc(-c3ccon3)n(Cc3ccccc3F)n2)ncc1F)S(C)(=O)=O [Compound I-582] | > 1 | –
O=C(Nc1ccccc1)Nc1ccnc(-c2cc(-c3ccon3)n(Cc3ccccc3F)n2)n1 [Compound I-583] | > 1 | –
NC(=O)NCC(=O)Nc1ccnc(-c2cc(-c3ccon3)n(Cc3ccccc3F)n2)n1 [Compound I-584] | > 1 | –
CC(C)NC(=O)NCC(=O)Nc1ccnc(-c2cc(-c3ccon3)n(Cc3ccccc3F)n2)n1 [Compound I-585] | 0.101 to 1 | –
CN(C)S(=O)(=O)NCC(=O)Nc1ccnc(-c2cc(-c3ccon3)n(Cc3ccccc3F)n2)n1 [Compound I-586] | 0.101 to 1 | –
CC(C(=O)Nc1ccnc(-c2cc(-c3ccon3)n(Cc3ccccc3F)n2)n1)S(C)(=O)=O (stereo not drawn) [Compound I-587] | 0.101 to 1 | –
CS(=O)(=O)CCC(Nc1nc(-c2cc(-c3ccon3)n(Cc3ccccc3F)n2)ncc1F)C(F)(F)F (stereo not drawn) [Compound I-588] | 0.101 to 1 | –
CC(C(=O)Nc1nc(-c2cc(-c3ccon3)n(Cc3ccccc3F)n2)ncc1F)S(C)(=O)=O (stereo not drawn) [Compound I-589] | 0.101 to 1 | –
NC(=O)C1CC(=O)N(c2nc(-c3cc(-c4ccon4)n(Cc4ccccc4F)n3)ncc2F)C1 (stereo not drawn) [Compound I-590] | > 1 | –
CCOC(=O)C1(C)CCN(c2nc(-c3cc(-c4ccon4)n(Cc4ccccc4F)n3)ncc2F)C1=O (stereo not drawn) [Compound I-591] | 0.101 to 1 | –
O=C(CS(=O)(=O)c1ccccc1)Nc1ccnc(-c2cc(-c3ccon3)n(Cc3ccccc3F)n2)n1 [Compound I-592] | > 1 | –
O=C(CS(=O)(=O)c1ccc(Cl)cc1)Nc1ccnc(-c2cc(-c3ccon3)n(Cc3ccccc3F)n2)n1 [Compound I-593] | > 1 | –
CC1(C(=O)Nc2ccnc(-c3cc(-c4ccon4)n(Cc4ccccc4F)n3)n2)Cc2ccccc2S1(=O)=O (stereo not drawn) [Compound I-594] | > 1 | –
O=S(=O)(CCC(F)(F)F)Nc1cnc(-c2cc(-c3ccon3)n(Cc3ccccc3F)n2)nc1 [Compound I-595] | 0.101 to 1 | –
O=C(CN1C(=O)c2ccccc2C1=O)Nc1ccnc(-c2cc(-c3ccon3)n(Cc3ccccc3F)n2)n1 [Compound I-596] | > 1 | –
O=C(Cc1ccccc1)NCC(=O)Nc1ccnc(-c2cc(-c3ccon3)n(Cc3ccccc3F)n2)n1 [Compound I-597] | > 1 | –
O=C(CNC(=O)OCc1ccccc1)Nc1ccnc(-c2cc(-c3ccon3)n(Cc3ccccc3F)n2)n1 [Compound I-598] | > 1 | –
O=C(CN1Cc2ccccc2C1=O)Nc1ccnc(-c2cc(-c3ccon3)n(Cc3ccccc3F)n2)n1 [Compound I-599] | > 1 | –
O=C(CN1CCOC1=O)Nc1ccnc(-c2cc(-c3ccon3)n(Cc3ccccc3F)n2)n1 [Compound I-600] | 0.101 to 1 | –
O=C(Cn1cnc2ccccc2c1=O)Nc1ccnc(-c2cc(-c3ccon3)n(Cc3ccccc3F)n2)n1 [Compound I-601] | > 1 | –

SMILES | EC50 [µM] | EC50 (HEK293 cells, 10 μM DETA-NONOate, LC/MS detection, concentration eliciting 50% of high control response (30 μM I-329)) [µM]
O=C(CN1C(=O)c2ccccc2C1=O)NCC(=O)Nc1ccnc(-c2cc(-c3ccon3)n(Cc3ccccc3F)n2)n1 [Compound I-602] | > 1 | –
COC(=O)NCC(=O)Nc1ccnc(-c2cc(-c3ccon3)n(Cc3ccccc3F)n2)n1 [Compound I-603] | 0.101 to 1 | –
CC1(C(=O)O)CCN(c2nc(-c3cc(-c4ccon4)n(Cc4ccccc4F)n3)ncc2F)C1=O (stereo not drawn) [Compound I-604] | 0.101 to 1 | –
CC1(C(=O)NC2CC2)CCN(c2nc(-c3cc(-c4ccon4)n(Cc4ccccc4F)n3)ncc2F)C1=O (stereo not drawn) [Compound I-605] | 0.101 to 1 | –
CC1(C(N)=O)CCN(c2nc(-c3cc(-c4ccon4)n(Cc4ccccc4F)n3)ncc2F)C1=O (stereo not drawn) [Compound I-606] | 0.101 to 1 | –
O=S(=O)(Cc1ccc(F)cc1)Nc1nc(-c2cc(-c3ccon3)n(Cc3ccccc3F)n2)ncc1F [Compound I-607] | 0.101 to 1 | –
Fc1ccccc1Cn1nc(-c2ncc(F)c(NCc3nnc(C(F)(F)F)o3)n2)cc1-c1ccon1 [Compound I-608] | < 0.1 | –
O=S(=O)(CC(F)(F)F)Nc1nc(-c2cc(-c3ccon3)n(Cc3ccccc3F)n2)ncc1F [Compound I-609] | > 1 | –
O=S(=O)(Nc1nc(-c2cc(-c3ccon3)n(Cc3ccccc3F)n2)ncc1F)C1CC1 [Compound I-610] | 0.101 to 1 | –
CCCS(=O)(=O)Nc1nc(-c2cc(-c3ccon3)n(Cc3ccccc3F)n2)ncc1F [Compound I-611] | 0.101 to 1 | –
O=C1CCS(=O)(=O)N1c1nc(-c2cc(-c3ccon3)n(Cc3ccccc3F)n2)ncc1F [Compound I-612] | < 0.1 | –
O=S(=O)(Nc1nc(-c2cc(-c3ccon3)n(Cc3ccccc3F)n2)ncc1F)c1ccccc1 [Compound I-613] | 0.101 to 1 | –
COc1ccc(S(=O)(=O)Nc2nc(-c3cc(-c4ccon4)n(Cc4ccccc4F)n3)ncc2F)cc1OC [Compound I-614] | 0.101 to 1 | –
O=C1C(O)CCN1c1nc(-c2cc(-c3ccon3)n(Cc3ccccc3F)n2)ncc1F (stereo not drawn) [Compound I-615] | > 1 | –
CS(=O)(=O)CC(=O)Nc1nc(-c2cc(-c3ccon3)n(Cc3ccccc3F)n2)ncc1F [Compound I-616] | 0.101 to 1 | –
CCOC(=O)C1(C)C(=O)Nc2cnc(-c3cc(-c4ccon4)n(Cc4ccccc4F)n3)nc21 (stereo not drawn) [Compound I-617] | > 1 | –
CCOC(=O)C1(C)C(=O)Nc2nc(-c3cc(-c4ccon4)n(CCC(F)(F)F)n3)nc(N)c21 (stereo not drawn) [Compound I-618] | > 1 | –
CC1(C(N)=O)C(=O)Nc2nc(-c3cc(-c4ccon4)n(CCC(F)(F)F)n3)nc(N)c21 (stereo not drawn) [Compound I-619] | > 1 | –
COC(=O)Nc1c(N)nc(-c2cc(-c3ccon3)n(Cc3ccccc3F)n2)nc1N [Compound I-620] | > 1 | –
COC(=O)N(C)c1c(N)nc(-c2cc(-c3ccon3)n(Cc3ccccc3F)n2)nc1N [Compound I-621] | > 1 | –
C[C@@H](Nc1nc(-c2cc(-c3ccon3)n(Cc3ccccc3F)n2)ncc1F)c1nnc(C(F)(F)F)o1 [Compound I-622] | < 0.1 | –
CC(=O)NNC(=O)C1(C)C(=O)Nc2nc(-c3cc(-c4ccon4)n(Cc4ccccc4F)n3)nc(N)c21 (stereo not drawn) [Compound I-623] | > 1 | –
O=S(=O)(Nc1nc(-c2cc(-c3ccon3)n(Cc3ccccc3F)n2)ncc1F)c1ccc(F)cc1 [Compound I-624] | 0.101 to 1 | –
O=S(=O)(Nc1nc(-c2cc(-c3ccon3)n(Cc3ccccc3F)n2)ncc1F)c1cccnc1 [Compound I-625] | > 1 | –
